We go through ten compounds from DBAASP.

What is called MIC is the lowest concentration that inhibits growth of the organism. The low end stands for inhibition by little substance, the high end for a need for much substance.

Among the test systems are Escherichia coli DL7; Bacillus subtilis PS832; Bacillus megaterium Bm11; Escherichia coli ML-35; Escherichia coli D21; Escherichia coli JM109; Escherichia coli HB101.
Holding throughout (assay): ≥ marks a high value that may be exact or a test limit, other limits are often not marked, values filed in µg/mL are converted to µM
Experiment [1] deals with Staphylococcus aureus ATCC 25923.
Experiment [2] concerns Klebsiella aerogenes ATCC 13048.
Experiment [3] has as its system Pseudomonas aeruginosa ATCC 27853.
Experiment [4] deals with Staphylococcus epidermidis ATCC 12228.
Experiment [5] has as its system Escherichia coli ATCC 25922.
Experiment [6] has as its system Candida albicans ATCC 20032.
Experiment [7] relates to Bacillus subtilis ATCC 6633.
The test system of experiment [8] is Serratia marcescens ATCC 8100.
Experiment [9] has as its system Salmonella enterica subsp. enterica serovar Typhimurium ATCC 14028.
For experiment [10], the system named is Pseudomonas aeruginosa ATCC 15442.
Experiment [11] has as its system Staphylococcus aureus ATCC 6538.
Experiment [12] has as its system Bacillus subtilis CCT 2576.
Experiment [13] deals with Micrococcus luteus ATCC 9341.
Experiment [14] concerns Staphylococcus epidermidis KCTC 1917.
The test system of experiment [15] is Trichosporon beigelii KCTC 7707.
Experiment [16] deals with Salmonella typhimurium KCTC 1926.
Experiment [17] deals with Staphylococcus aureus KCTC 1621.
The subject of experiment [18] is Escherichia coli KCTC 1682.
The subject of experiment [19] is Saccharomyces cerevisiae KCTC 7296.
For experiment [20], the system named is Bacillus subtilis KCTC 1918.
Experiment [21] deals with Pseudomonas aeruginosa KCTC 1637.
In experiment [22] the test system is Candida albicans KCTC 7270.
In experiment [23] the test system is Staphylococcus aureus ATCC 9144.
The subject of experiment [24] is Corynebacterium glutamicum ATCC 13032.

Values after ≈ are worked out from the molar mass of the structure shown. Values joined by “and” are separate entries in the source; they are usually repeats but may differ in a detail not shown here. Equal entries are not always repeated.

As to `CC(C)C[C@H](NC(=O)[C@H](CCCCN)NC(=O)[C@H](C)NC(=O)[C@H](CC(C)C)NC(=O)[C@H](CCCCN)NC(=O)[C@H](CCCCN)NC(=O)[C@H](C)NC(=O)[C@H](CC(C)C)NC(=O)[C@H](CCCCN)NC(=O)[C@H](C)NC(=O)[C@H](CC(C)C)NC(=O)[C@@H](N)CCCCN)C(=O)N[C@@H](C)C(=O)N[C@@H](CCCCN)C(N)=O` [KLAKLAKKLAKLAK], the MIC is 6 µM (≈ 9.14 µg/mL) in [1]; ≥ 32 µM in experiment [2]; 1 µM (≈ 1.52 µg/mL) with Escherichia coli DL7; 6 µM (≈ 9.14 µg/mL) in experiment [3]; 4 µM (≈ 6.09 µg/mL) in experiment [4]; 6 µM (≈ 9.14 µg/mL) in [5]. In addition, in the experiment on Bacillus subtilis PS832, the MIC was 0.5 µM and 0.25 µM.
As for `CC(C)C[C@H](NC(=O)[C@H](CCCCN)NC(=O)[C@H](C)NC(=O)[C@H](CC(C)C)NC(=O)[C@H](CCCCN)NC(=O)[C@H](CCCCN)NC(=O)[C@H](C)NC(=O)[C@H](CC(C)C)NC(=O)[C@H](CCCCN)NC(=O)[C@H](C)NC(=O)[C@H](CC(C)C)NC(=O)[C@H](CCCCN)NC(=O)[C@H](Cc1cnc[nH]1)NC(=O)[C@H](C)NC(=O)[C@@H](N)CC(=O)O)C(=O)N[C@@H](C)C(=O)N[C@@H](CCCCN)C(N)=O` [DAHKLAKLAKKLAKLAK], the MIC is ≥ 32 µM in experiment [2]; 0.25 µM (≈ 0.462 µg/mL) in the experiment on Escherichia coli DL7; 4 µM (≈ 7.39 µg/mL) in experiment [4]; 0.25 µM and 0.5 µM against Bacillus subtilis PS832.
Regarding `CC[C@H](C)[C@H](N)C(=O)N[C@@H](CC(C)C)C(=O)NCC(=O)N1CCC[C@H]1C(=O)N[C@H](C(=O)N[C@H](C(=O)N[C@@H](CCCCN)C(=O)N[C@H](C(=O)N[C@H](C(=O)NCC(=O)NCC(=O)N[C@H](C(=O)N[C@H](C(=O)NCC(=O)NCC(=O)N[C@@H](CC(C)C)C(=O)N[C@@H](CC(C)C)C(=O)N[C@@H](CCCCN)C(=O)N[C@@H](CC(N)=O)C(=O)N[C@@H](CC(C)C)C(N)=O)[C@@H](C)CC)C(C)C)[C@@H](C)CC)[C@@H](C)O)[C@@H](C)CC)C(C)C` [ILGPVIKTIGGVIGGLLKNL], the minimal inhibitory concentration (MIC) in [1] was 4.76 µM (≈ 9.4 µg/mL); in experiment [6] it was 9.52 µM (≈ 18.8 µg/mL); in [7] it was 9.52 µM (≈ 18.8 µg/mL); in experiment [5], > 50.6 µM.
Turning to `CC(C)C[C@H](NC(=O)[C@H](Cc1ccc(O)cc1)NC(=O)[C@@H]1CCCN1C(=O)[C@@H]1CCCN1C(=O)[C@H](CCCN=C(N)N)NC(=O)[C@@H]1CCCN1C(=O)[C@H](CC(N)=O)NC(=O)[C@H](CC(N)=O)NC(=O)[C@@H](N)CC(N)=O)C(=O)N1CCC[C@H]1C(=O)N[C@@H](CCCN=C(N)N)C(=O)N1CCC[C@H]1C(=O)N[C@@H](CCCN=C(N)N)C(=O)N1CCC[C@H]1C(=O)N1CCC[C@H]1C(=O)O` [NNNPRPPYLPRPRPP], the MIC is ≥ 64 µM against Bacillus megaterium Bm11; ≥ 64 µM in experiment [8]; > 64 µM in experiment [4]; ≥ 64 µM against Escherichia coli ML-35; ≥ 64 µM with Escherichia coli D21; > 64 µM in [9].
Consider `CC[C@H](C)[C@H](N)C(=O)N[C@@H](CC(C)C)C(=O)NCC(=O)N[C@H](C(=O)N[C@H](C(=O)N[C@@H](CC(C)C)C(=O)NCC(=O)N[C@@H](CC(C)C)C(=O)N[C@@H](CC(C)C)C(=O)N[C@@H](CCCCN)C(=O)NCC(=O)N[C@@H](CC(C)C)C(N)=O)[C@@H](C)CC)[C@@H](C)O` [ILGTILGLLKGL], for which the MIC worked out at 1.4 µM (≈ 1.7 µg/mL) in experiment [10], 10.3 µM (≈ 12.5 µg/mL) in experiment [11], 10.3 µM (≈ 12.5 µg/mL) in experiment [5] and 1.24 µM (≈ 1.5 µg/mL) in experiment [12].
As for `CC[C@H](C)[C@H](N)C(=O)N[C@@H](CC(C)C)C(=O)N1CCC[C@H]1C(=O)N[C@H](C(=O)N[C@@H](CCCCN)C(=O)N[C@H](C(=O)N1CCC[C@H]1C(=O)N[C@H](C(=O)N[C@H](C(=O)N1CCC[C@H]1C(=O)N[C@H](C(=O)N[C@@H](CCCN=C(N)N)C(=O)N[C@@H](CCCN=C(N)N)C(N)=O)[C@@H](C)CC)[C@@H](C)CC)[C@@H](C)CC)[C@@H](C)CC)[C@@H](C)CC` [ILPIKIPIIPIRR], the MIC in experiment [13] was 25 µM (≈ 38.5 µg/mL).
For the compound `CC[C@H](C)[C@H](N)C(=O)N[C@@H](CC(C)C)C(=O)NCC(=O)N1CCC[C@H]1C(=O)N[C@H](C(=O)N[C@@H](CC(C)C)C(=O)NCC(=O)N[C@@H](CC(C)C)C(=O)N[C@H](C(=O)N[C@@H](CO)C(=O)N[C@@H](CC(N)=O)C(=O)N[C@H](C(=O)N[C@@H](CC(C)C)C(=O)N[C@@H](CC(=O)O)C(=O)N[C@@H](CC(=O)O)C(=O)N[C@H](C(=O)N[C@@H](CC(C)C)C(=O)NCC(=O)N[C@H](C(=O)N[C@@H](CC(C)C)C(N)=O)[C@@H](C)CC)C(C)C)[C@@H](C)O)C(C)C)C(C)C` [ILGPVLGLVSNTLDDVLGIL], the MIC is > 49.5 µM in experiment [1], ≥ 49.5 µM in [6], ≥ 49.5 µM in [7] and > 49.5 µM in experiment [5].
In the case of `CC[C@H](C)[C@H](NC(=O)[C@H](CCCCN)NC(=O)[C@H](CO)NC(=O)[C@H](Cc1ccccc1)NC(=O)[C@H](CC(C)C)NC(=O)[C@H](CCCCN)NC(=O)[C@H](CCC(=O)O)NC(=O)[C@H](CC(C)C)NC(=O)[C@H](CCCN=C(N)N)NC(=O)[C@H](CCCCN)NC(=O)[C@H](Cc1ccccc1)NC(=O)[C@@H](NC(=O)[C@@H](N)CCCCN)C(C)C)C(N)=O` [KVFKRLEKLFSKI], the MIC came to 6.25 µM (≈ 10.2 µg/mL) in experiment [14]; 1.56 µM (≈ 2.55 µg/mL) in experiment [15]; 0.78 µM (≈ 1.28 µg/mL) in experiment [16]; 6.25 µM (≈ 10.2 µg/mL) in [17]; 3.12 µM (≈ 5.11 µg/mL) in experiment [18]; 8.84 µM (≈ 14.5 µg/mL) in experiment [19]. For the same compound, the MIC stood at 2.21 µM (≈ 3.61 µg/mL) in experiment [20], 1.56 µM (≈ 2.55 µg/mL) in experiment [21] and 25 µM (≈ 40.9 µg/mL) in experiment [22].
Consider `CC[C@H](C)[C@H](N)C(=O)N[C@@H](CC(N)=O)C(=O)N[C@@H](Cc1c[nH]c2ccccc12)C(=O)N[C@@H](CCCCN)C(=O)N[C@@H](CCCCN)C(=O)N[C@H](C(=O)N[C@@H](C)C(=O)N[C@@H](CCC(=O)O)C(=O)N[C@H](C(=O)NCC(=O)NCC(=O)N[C@@H](CCCCN)C(=O)N[C@H](C(=O)N[C@@H](CC(C)C)C(=O)N[C@@H](CO)C(=O)N[C@@H](CO)C(=O)N[C@@H](CC(C)C)C(N)=O)[C@@H](C)CC)C(C)C)[C@@H](C)CC` [INWKKIAEVGGKILSSL], for which the MIC amounted to 4.31 µM (≈ 8 µg/mL) against Escherichia coli JM109 and 1.08 µM (≈ 2 µg/mL) in [7].
On to `CC[C@H](C)[C@H](NC(=O)[C@@H]1CCCN1C(=O)[C@H](CCCCN)NC(=O)[C@@H]1CCCN1C(=O)[C@H](CCCN=C(N)N)NC(=O)CNC(=O)[C@@H]1CCCN1C(=O)[C@H](Cc1ccccc1)NC(=O)[C@@H]1CCCN1C(=O)[C@H](CCCN=C(N)N)NC(=O)[C@@H]1CCCN1C(=O)[C@H](CCCN=C(N)N)NC(=O)CNC(=O)[C@@H]1CCCN1C(=O)[C@@H](N)CO)C(=O)N[C@@H](Cc1ccccc1)C(=O)N[C@@H](CCCN=C(N)N)C(=O)N1CCC[C@H]1C(=O)N[C@@H](CCCN=C(N)N)C(=O)O` [SPGRPRPFPGRPKPIFRPR], for which the MIC is > 100 µM in experiment [3]; ≥ 100 µM in experiment [23]; > 100 µM in experiment [5]; ≥ 100 µM in the experiment with Escherichia coli HB101; 6.3 µM (≈ 14 µg/mL) in experiment [24].
